Experiments:
Type in all cases: cell-based, mouse
[1] = system: α7 integrin (LacZ reporter in α7βgal+/− myoblasts); test: Myoblast α7+/LacZ integrin FDG assay (Burkin assay in myoblasts, 96-well); details: α7+/LacZ myoblasts, 96-well
[2] = system: α7 integrin (LacZ reporter in α7+/LacZ myotubes); test: Myotube α7 integrin FDG assay (Burkin assay in myotubes, 96-well); details: myotubes
[3] = system: β-galactosidase in CMV-LacZ C2C12 myotubes; test: CMV-LacZ secondary screen in C2C12 myotubes (β-Gal stabilizing assay); details: C2C12 CMV-LacZ myotubes, fold relative to DMSO
How it was run: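 A secondary screen identifies compounds that stabilize β-gal independently of the native promoter, using CMV-LacZ C2C12 cells. Curves span 0.5–40 μM at six levels, in duplicate.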

[4] = system: β-galactosidase in CMV-LacZ C2C12 myoblasts; test: CMV-LacZ secondary screen in C2C12 myoblasts (β-Gal stabilizing assay); details: CMV-LacZ C2C12 myoblasts
How it was run: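 β-Gal level was the read-out, measured in a clonal C2C12 line expressing LacZ from a CMV promoter. Dose-response curves used six concentrations, 0.5 μM up to 40 μM, with duplicate points.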

| Structure (SMILES) | Burkin Assay in Myoblasts, signal relative to DMSO ([1]; 0.5 uM) | Burkin Assay in Myoblasts, signal relative to DMSO ([1]; 1 uM) | Burkin Assay in Myoblasts, signal relative to DMSO ([1]; 5 uM) | Burkin Assay in Myoblasts, signal relative to DMSO ([1]; 10 uM) | Burkin Assay in Myoblasts, signal relative to DMSO ([1]; 20 uM) | Burkin Assay in Myoblasts, signal relative to DMSO ([1]; 40 uM) | Burkin Assay in Myotubes, α7 integrin LacZ reporter signal relative to DMSO ([2]; 0.5 uM) | Burkin Assay in Myotubes, α7 integrin LacZ reporter signal relative to DMSO ([2]; 1 uM) | Burkin Assay in Myotubes, α7 integrin LacZ reporter signal relative to DMSO ([2]; 5 uM) | Burkin Assay in Myotubes, α7 integrin LacZ reporter signal relative to DMSO ([2]; 10 uM) | Burkin Assay in Myotubes, α7 integrin LacZ reporter signal relative to DMSO ([2]; 20 uM) | Burkin Assay in Myotubes, α7 integrin LacZ reporter signal relative to DMSO ([2]; 40 uM) | CMV-LACZ in Myotubes, signal relative to DMSO ([3]; 0.5 uM) | CMV-LACZ in Myotubes, signal relative to DMSO ([3]; 1 uM) | CMV-LACZ in Myotubes, signal relative to DMSO ([3]; 5 uM) | CMV-LACZ in Myotubes, signal relative to DMSO ([3]; 10 uM) | CMV-LACZ in Myotubes, signal relative to DMSO ([3]; 20 uM) | CMV-LACZ in Myotubes, signal relative to DMSO ([3]; 40 uM) | CMV-LACZ in Myoblasts (β-galactosidase activity relative to DMSO) ([4]; 0.5 uM) | CMV-LACZ in Myoblasts (β-galactosidase activity relative to DMSO) ([4]; 1 uM) | other results |
| --- | --- | --- | --- | --- | --- | --- | --- | --- | --- | --- | --- | --- | --- | --- | --- | --- | --- | --- | --- | --- | --- |
| COC(=O)c1ccccc1NC(=O)CSc1nc(O)c(-c2ccccc2)c(=O)[nH]1 [MLS000621451-01] | 1.065 | 1.018 | 1.066 | 1.114 | 1.0713 | 1.088 | 0.9471 | 0.8932 | 0.9254 | 1.071 | 0.8327 | 1.024 | 1.1114 | 0.9295 | 1.0177 | 1.1398 | 0.9853 | 0.9695 | 1.0388 | 1.1579 | CMV-LACZ in Myoblasts (β-galactosidase activity relative to DMSO) ([4]; 5 uM): 0.9255; CMV-LACZ in Myoblasts (β-galactosidase activity relative to DMSO) ([4]; 10 uM): 1.3023; CMV-LACZ in Myoblasts (β-galactosidase activity relative to DMSO) ([4]; 20 uM): 1.2493; CMV-LACZ in Myoblasts (β-galactosidase activity relative to DMSO) ([4]; 40 uM): 1.1926 |
| Cc1ccc(C(=O)N2CCN(S(=O)(=O)N3CCOCC3)CC2)cc1 [MLS000663185-01] | 1.109 | 0.9744 | 1.399 | 0.9312 | 0.9222 | 0.8328 | 0.968 | 0.8137 | 0.9767 | 1.0708 | 0.7791 | 1.118 | 1.0924 | 0.9800 | 0.9322 | 0.8722 | 0.9540 | 1.1270 | 1.1390 | 1.1477 | CMV-LACZ in Myoblasts (β-galactosidase activity relative to DMSO) ([4]; 5 uM): 0.9688; CMV-LACZ in Myoblasts (β-galactosidase activity relative to DMSO) ([4]; 10 uM): 0.8567; CMV-LACZ in Myoblasts (β-galactosidase activity relative to DMSO) ([4]; 20 uM): 0.9211; CMV-LACZ in Myoblasts (β-galactosidase activity relative to DMSO) ([4]; 40 uM): 0.9347 |
| COCCSc1ccccc1C(=O)Nc1cc(C)cc(C)c1 [MLS000675441-01] | 0.9397 | 0.8764 | 1.044 | 1.248 | 0.9015 | 0.8996 | 0.8552 | 1.071 | 0.9591 | 1.119 | 0.7476 | 0.7168 | 1.0074 | 1.1032 | 1.0460 | 1.0337 | 0.9578 | 0.9822 | 1.0332 | 0.9289 | CMV-LACZ in Myoblasts (β-galactosidase activity relative to DMSO) ([4]; 5 uM): 0.8800; CMV-LACZ in Myoblasts (β-galactosidase activity relative to DMSO) ([4]; 10 uM): 0.8690; CMV-LACZ in Myoblasts (β-galactosidase activity relative to DMSO) ([4]; 20 uM): 0.8656; CMV-LACZ in Myoblasts (β-galactosidase activity relative to DMSO) ([4]; 40 uM): 0.7437 |

From patent US9980943B2, “Methods of treating muscular dystrophy” (BOARD OF REGENTS OF THE NEVADA SYSTEM OF HIGHER EDUCATION, …, priority 2013, dated 2018)
